Data from ChEMBL document CHEMBL5724914, “Linking interpersonal differences in gut microbiota composition and drug biotransformation activity” (2024).

Experiment: (§1) The drug is tested on Z-030 corresponding to mouse gut metagenome with ENA study accession number: PRJEB37062 and ENA sample accession number: ERS12561829 for biotransformation under anaerobic condition. The drug concentrations were measured over 9 timepoints collected between 0 and 24 hours of incubation by liquid-chromatography-coupled mass spectrometry (LC–MS)
Conditions: 2 µM
Also: call rule not given here.

Structure (SMILES) | Bacterial Biotransformation
CCN(C)C(=O)Oc1cccc([C@H](C)N(C)C)c1.O=C(O)C(O)C(O)C(=O)O [RIVASTIGMINE TARTRATE] | Compound NOT metabolized
CCCN(CCC)CCc1cccc2c1CC(=O)N2 [ROPINIROLE] | Compound NOT metabolized

Experiment: as §1, with “Z-026” for “Z-030”, “to” for “to mouse gut”, “ERS12561825” for “ERS12561829”
Conditions: 2 µM

Structure (SMILES) | Bacterial Biotransformation
CCN(C)C(=O)Oc1cccc([C@H](C)N(C)C)c1.O=C(O)C(O)C(O)C(=O)O [RIVASTIGMINE TARTRATE] | Compound NOT metabolized
CCCN(CCC)CCc1cccc2c1CC(=O)N2 [ROPINIROLE] | Compound NOT metabolized

Experiment: as §1, with “Z-020” for “Z-030”, “rabbit” for “mouse”, “ERS12561819” for “ERS12561829”
Conditions: 2 µM

Structure (SMILES) | Bacterial Biotransformation
CCN(C)C(=O)Oc1cccc([C@H](C)N(C)C)c1.O=C(O)C(O)C(O)C(=O)O [RIVASTIGMINE TARTRATE] | Compound NOT metabolized
CCCN(CCC)CCc1cccc2c1CC(=O)N2 [ROPINIROLE] | Compound metabolized

Experiment: as §1, with “Z-008” for “Z-030”, “to” for “to mouse gut”, “ERS12561808” for “ERS12561829”
Conditions: 2 µM

Structure (SMILES) | Bacterial Biotransformation
CCN(C)C(=O)Oc1cccc([C@H](C)N(C)C)c1.O=C(O)C(O)C(O)C(=O)O [RIVASTIGMINE TARTRATE] | Compound NOT metabolized
CCCN(CCC)CCc1cccc2c1CC(=O)N2 [ROPINIROLE] | Compound NOT metabolized

Experiment: as §1, with “Z-003” for “Z-030”, “pig” for “mouse”, “ERS12561803” for “ERS12561829”
Conditions: 2 µM

Structure (SMILES) | Bacterial Biotransformation
CCN(C)C(=O)Oc1cccc([C@H](C)N(C)C)c1.O=C(O)C(O)C(O)C(=O)O [RIVASTIGMINE TARTRATE] | Compound NOT metabolized
CCCN(CCC)CCc1cccc2c1CC(=O)N2 [ROPINIROLE] | Compound metabolized

Experiment: as §1, with “WLS-310” for “Z-030”, “human” for “mouse”, “ERS12561785” for “ERS12561829”
Conditions: 2 µM

Structure (SMILES) | Bacterial Biotransformation
CCN(C)C(=O)Oc1cccc([C@H](C)N(C)C)c1.O=C(O)C(O)C(O)C(=O)O [RIVASTIGMINE TARTRATE] | Compound NOT metabolized
CCCN(CCC)CCc1cccc2c1CC(=O)N2 [ROPINIROLE] | Compound NOT metabolized

Experiment: as §1, with “WLS-220” for “Z-030”, “human” for “mouse”, “ERS12561769” for “ERS12561829”
Conditions: 2 µM

Structure (SMILES) | Bacterial Biotransformation
CCN(C)C(=O)Oc1cccc([C@H](C)N(C)C)c1.O=C(O)C(O)C(O)C(=O)O [RIVASTIGMINE TARTRATE] | Compound NOT metabolized
CCCN(CCC)CCc1cccc2c1CC(=O)N2 [ROPINIROLE] | Compound metabolized

Experiment: as §1, with “WLS-077” for “Z-030”, “human” for “mouse”, “ERS12561750” for “ERS12561829”
Conditions: 2 µM

Structure (SMILES) | Bacterial Biotransformation
CCN(C)C(=O)Oc1cccc([C@H](C)N(C)C)c1.O=C(O)C(O)C(O)C(=O)O [RIVASTIGMINE TARTRATE] | Compound NOT metabolized
CCCN(CCC)CCc1cccc2c1CC(=O)N2 [ROPINIROLE] | Compound NOT metabolized

Experiment: as §1, with “WLS-007” for “Z-030”, “human” for “mouse”, “ERS12561742” for “ERS12561829”
Conditions: 2 µM

Structure (SMILES) | Bacterial Biotransformation
CCN(C)C(=O)Oc1cccc([C@H](C)N(C)C)c1.O=C(O)C(O)C(O)C(=O)O [RIVASTIGMINE TARTRATE] | Compound NOT metabolized
CCCN(CCC)CCc1cccc2c1CC(=O)N2 [ROPINIROLE] | Compound NOT metabolized

Conditions: human gut metagenome, 24 h, 2 µM

Structure (SMILES) | Bacterial Biotransformation
CCN(C)C(=O)Oc1cccc([C@H](C)N(C)C)c1.O=C(O)C(O)C(O)C(=O)O [RIVASTIGMINE TARTRATE] | Compound NOT metabolized
CCCN(CCC)CCc1cccc2c1CC(=O)N2 [ROPINIROLE] | Compound NOT metabolized

Conditions: human gut metagenome, 24 h, 2 µM
Remark: another data set of the same source

Structure (SMILES) | Bacterial Biotransformation
CCN(C)C(=O)Oc1cccc([C@H](C)N(C)C)c1.O=C(O)C(O)C(O)C(=O)O [RIVASTIGMINE TARTRATE] | Compound metabolized
CCCN(CCC)CCc1cccc2c1CC(=O)N2 [ROPINIROLE] | Compound NOT metabolized

Conditions: human gut metagenome, 24 h, 2 µM
Remark: another data set of the same source

Structure (SMILES) | Bacterial Biotransformation
CCN(C)C(=O)Oc1cccc([C@H](C)N(C)C)c1.O=C(O)C(O)C(O)C(=O)O [RIVASTIGMINE TARTRATE] | Compound NOT metabolized
CCCN(CCC)CCc1cccc2c1CC(=O)N2 [ROPINIROLE] | Compound NOT metabolized

Conditions: human gut metagenome, 24 h, 2 µM
Remark: another data set of the same source

Structure (SMILES) | Bacterial Biotransformation
CCN(C)C(=O)Oc1cccc([C@H](C)N(C)C)c1.O=C(O)C(O)C(O)C(=O)O [RIVASTIGMINE TARTRATE] | Compound NOT metabolized
CCCN(CCC)CCc1cccc2c1CC(=O)N2 [ROPINIROLE] | Compound metabolized

Conditions: human gut metagenome, 24 h, 2 µM
Remark: another data set of the same source

Structure (SMILES) | Bacterial Biotransformation
CCN(C)C(=O)Oc1cccc([C@H](C)N(C)C)c1.O=C(O)C(O)C(O)C(=O)O [RIVASTIGMINE TARTRATE] | Compound NOT metabolized
CCCN(CCC)CCc1cccc2c1CC(=O)N2 [ROPINIROLE] | Compound NOT metabolized

Conditions: human gut metagenome, 24 h, 2 µM
Remark: another data set of the same source

Structure (SMILES) | Bacterial Biotransformation
CCN(C)C(=O)Oc1cccc([C@H](C)N(C)C)c1.O=C(O)C(O)C(O)C(=O)O [RIVASTIGMINE TARTRATE] | Compound metabolized
CCCN(CCC)CCc1cccc2c1CC(=O)N2 [ROPINIROLE] | Compound metabolized

Conditions: human gut metagenome, 24 h, 2 µM
Remark: another data set of the same source

Structure (SMILES) | Bacterial Biotransformation
CCN(C)C(=O)Oc1cccc([C@H](C)N(C)C)c1.O=C(O)C(O)C(O)C(=O)O [RIVASTIGMINE TARTRATE] | Compound NOT metabolized
CCCN(CCC)CCc1cccc2c1CC(=O)N2 [ROPINIROLE] | Compound metabolized

Conditions: human gut metagenome, 24 h, 2 µM
Remark: another data set of the same source

Structure (SMILES) | Bacterial Biotransformation
CCN(C)C(=O)Oc1cccc([C@H](C)N(C)C)c1.O=C(O)C(O)C(O)C(=O)O [RIVASTIGMINE TARTRATE] | Compound NOT metabolized
CCCN(CCC)CCc1cccc2c1CC(=O)N2 [ROPINIROLE] | Compound NOT metabolized

Conditions: human gut metagenome, 24 h, 2 µM
Remark: another data set of the same source

Structure (SMILES) | Bacterial Biotransformation
CCN(C)C(=O)Oc1cccc([C@H](C)N(C)C)c1.O=C(O)C(O)C(O)C(=O)O [RIVASTIGMINE TARTRATE] | Compound NOT metabolized
CCCN(CCC)CCc1cccc2c1CC(=O)N2 [ROPINIROLE] | Compound NOT metabolized

Conditions: human gut metagenome, 24 h, 2 µM
Remark: another data set of the same source

Structure (SMILES) | Bacterial Biotransformation
CCN(C)C(=O)Oc1cccc([C@H](C)N(C)C)c1.O=C(O)C(O)C(O)C(=O)O [RIVASTIGMINE TARTRATE] | Compound NOT metabolized
CCCN(CCC)CCc1cccc2c1CC(=O)N2 [ROPINIROLE] | Compound metabolized

Conditions: human gut metagenome, 24 h, 2 µM
Remark: another data set of the same source

Structure (SMILES) | Bacterial Biotransformation
CCN(C)C(=O)Oc1cccc([C@H](C)N(C)C)c1.O=C(O)C(O)C(O)C(=O)O [RIVASTIGMINE TARTRATE] | Compound NOT metabolized
CCCN(CCC)CCc1cccc2c1CC(=O)N2 [ROPINIROLE] | Compound metabolized
